Data from Sander's compilation of Henry's law constants (doi:10.1002/jps.2600670510).

Experiment: Henry solubility constant Hcp at 298.15 K (mol/(m3 Pa))
Conditions: reference: Rytting et al. (1978)

Structure (SMILES)	Henry solubility constant Hcp
CCCCN [1-butanamine]	0.52
CCCCCCCN [1-heptanamine]	0.24
CCCCCCN [1-hexanamine]	0.32
CCCCCCCCN [1-octanamine]	0.19
CCCCCN [1-pentanamine]	0.4
CCCCCO [1-pentanol]	0.9
CCC(C)O (configuration not stated) [2-butanol]	0.98
CC(C)CO [2-methyl-1-propanol]	0.8

Second part, the compound after the results:

Henry solubility constant Hcp	Structure (SMILES)
4.8e-06	CCCCCCC [heptane]
5.4e-06	CCCCCC [hexane]
3.1e-06	CCCCCCCC [octane]
7.8e-06	CCCCC [pentane]
